Assay results as given in ChEMBL document CHEMBL2406991, “A novel series of metabotropic glutamate receptor 5 negative allosteric modulators based on a 4,5,6,7-tetrahydropyrazolo[1,5-a]pyridine core” (Bioorg Med Chem Lett, 2013).
In brackets after ≈: the same amount, converted by molar mass. Values belong to the compound of their own block, whether it stands above or below them. Activity calls are given as the source filed them. The rule behind the calls is not given here.

Assays:
[1] = target: Metabotropic glutamate receptor 5 (Rattus norvegicus, UniProt P31424); experiment: Negative allosteric modulation of rat mGluR5 receptor expressed in HEK293 cells assessed as intracellular calcium flux after 170 seconds by FLIPR assay; assay type: functional, cell-based
[2] = target: Metabotropic glutamate receptor 5 (Rattus norvegicus) (UniProt P31424); experiment: Partial negative allosteric modulation of rat mGluR5 receptor expressed in HEK293 cells assessed as intracellular calcium flux after 170 seconds by FLIPR assay relative to control; assay type: functional, cell-based
[3] = Intrinsic clearance in human microsomes measured per mg of protein; assay type: ADME, Microsome
[4] = Intrinsic clearance in rat microsomes measured per mg of protein; assay type: ADME, Microsome
[5] = target: Metabotropic glutamate receptor 5 (Rattus norvegicus) (UniProt P31424); experiment: Inhibition of rat mGluR5 receptor expressed in HEK293 cells at 30 uM relative to control; assay type: cell-based
Rattus norvegicus [6] = experiment: Antinociceptive activity in po dosed Sprague-Dawley rat assessed as reduction in formalin-induced nocifensive behavior administered 30 mins prior to formalin-challenge measured during second phase of test; assay type: functional, organism-based
[7] = Clearance in rat at 3 mg/kg, iv; assay type: ADME, organism-based; set-up: dose 3 mg/kg, route intravenous; details: in vivo
[8] = Cmax in rat CSF at 30 mg/kg, sc; assay type: ADME, organism-based, Cerebrospinal fluid; set-up: dose 30 mg/kg, route subcutaneous
Plasma [9] = experiment: Terminal plasma concentration in Sprague-Dawley rat at 30 mg/kg, po measured during second phase of formalin test; assay type: ADME, organism-based; set-up: dose 30 mg/kg, route oral; details: in vivo
Plasma [10] = experiment: Terminal plasma concentration in Sprague-Dawley rat at 10 mg/kg, po measured during second phase of formalin test; assay type: ADME, organism-based; set-up: dose 10 mg/kg, route oral; details: in vivo
[11] = Half life in rat at 3 mg/kg, iv; assay type: ADME, organism-based; set-up: dose 3 mg/kg, route intravenous; details: in vivo
Plasma [12] = experiment: Drug uptake in rat CSF assessed as ratio of CSF to plasma at 30 mg/kg, sc relative to control; assay type: ADME, organism-based; set-up: dose 30 mg/kg, route subcutaneous; details: in vivo
[13] = Kinetic solubility of the compound in DMSO at pH 7.4; assay type: physicochemical; details: read-out: Kinetic_solubility
Plasma [14] = experiment: Terminal plasma concentration in Sprague-Dawley rat at 3 mg/kg, po measured during second phase of formalin test; assay type: ADME, organism-based; set-up: dose 3 mg/kg, route oral; details: in vivo
Cytochrome P450 2D6 = Cytochrome P450 2D6 (Homo sapiens, UniProt P10635); experiment: Inhibition of CYP2D6 (unknown origin); assay type: ADME
[15] = target: Metabotropic glutamate receptor 5 (Rattus norvegicus) (UniProt P31424); experiment: Displacement of [3H]MPEP from mGluR5 receptor in Sprague-Dawley rat cortical homogenate after 1 hr by liquid scintillation spectrometric analysis
[16] = Fraction unbound in rat plasma; assay type: ADME, cell-free
[17] = Volume of distribution at steady state in rat at 3 mg/kg, iv; assay type: ADME, organism-based; set-up: dose 3 mg/kg, route intravenous; details: in vivo, read-out: Vdss
Rattus norvegicus [18] = experiment: Antinociceptive activity in Sprague-Dawley rat assessed as reduction in formalin-induced nocifensive behavior at 30 mg/kg, po administered 30 mins prior to formalin-challenge measured during second phase of test; assay type: functional, organism-based; set-up: dose 30 mg/kg
Cytochrome P450 2C9 = Cytochrome P450 2C9 (Homo sapiens, UniProt P11712); experiment: Inhibition of CYP2C9 (unknown origin); assay type: ADME
Cytochrome P450 3A4 = Cytochrome P450 3A4 (Homo sapiens, UniProt P08684); experiment: Inhibition of CYP3A4 (unknown origin); assay type: ADME
Cytochrome P450 1A2 = target: T1, Cytochrome P450 1A2 (Homo sapiens, UniProt P05177); experiment: Inhibition of CYP1A2 (unknown origin); assay type: ADME
T1 sequence (P05177 whole entry): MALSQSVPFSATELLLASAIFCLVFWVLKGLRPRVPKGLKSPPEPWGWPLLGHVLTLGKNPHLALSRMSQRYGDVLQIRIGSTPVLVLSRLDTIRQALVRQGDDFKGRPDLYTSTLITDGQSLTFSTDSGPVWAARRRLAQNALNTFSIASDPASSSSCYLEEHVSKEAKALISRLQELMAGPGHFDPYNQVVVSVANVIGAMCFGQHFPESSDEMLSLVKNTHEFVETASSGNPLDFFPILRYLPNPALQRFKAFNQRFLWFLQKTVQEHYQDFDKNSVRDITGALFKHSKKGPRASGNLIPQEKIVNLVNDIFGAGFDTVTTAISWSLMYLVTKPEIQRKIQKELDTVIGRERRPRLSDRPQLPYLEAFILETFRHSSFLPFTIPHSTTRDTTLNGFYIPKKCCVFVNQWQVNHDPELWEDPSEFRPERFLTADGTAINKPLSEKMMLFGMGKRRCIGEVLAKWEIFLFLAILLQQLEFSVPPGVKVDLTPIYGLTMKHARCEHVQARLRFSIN

[19] = Kinetic solubility of the compound in DMSO at pH 1; assay type: physicochemical; details: read-out: Kinetic_solubility
Rattus norvegicus [20] = experiment: Antinociceptive activity in Sprague-Dawley rat assessed as reduction in formalin-induced nocifensive behavior at 1 to 30 mg/kg, po administered 30 mins prior to formalin-challenge measured during first phase of test; assay type: functional, organism-based
Plasma [21] = experiment: Terminal plasma concentration in Sprague-Dawley rat at 1 mg/kg, po measured during second phase of formalin test; assay type: ADME, organism-based; set-up: dose 1 mg/kg, route oral; details: in vivo
[22] = Cmax in rat plasma at 30 mg/kg, sc; assay type: ADME, organism-based; set-up: dose 30 mg/kg, route subcutaneous
Rattus norvegicus [23] = experiment: Antinociceptive activity in Sprague-Dawley rat assessed as reduction in formalin-induced nocifensive behavior at 10 mg/kg, po administered 30 mins prior to formalin-challenge; assay type: functional, organism-based; set-up: dose 10 mg/kg

Sequence of Metabotropic glutamate receptor 5 (P31424 whole entry): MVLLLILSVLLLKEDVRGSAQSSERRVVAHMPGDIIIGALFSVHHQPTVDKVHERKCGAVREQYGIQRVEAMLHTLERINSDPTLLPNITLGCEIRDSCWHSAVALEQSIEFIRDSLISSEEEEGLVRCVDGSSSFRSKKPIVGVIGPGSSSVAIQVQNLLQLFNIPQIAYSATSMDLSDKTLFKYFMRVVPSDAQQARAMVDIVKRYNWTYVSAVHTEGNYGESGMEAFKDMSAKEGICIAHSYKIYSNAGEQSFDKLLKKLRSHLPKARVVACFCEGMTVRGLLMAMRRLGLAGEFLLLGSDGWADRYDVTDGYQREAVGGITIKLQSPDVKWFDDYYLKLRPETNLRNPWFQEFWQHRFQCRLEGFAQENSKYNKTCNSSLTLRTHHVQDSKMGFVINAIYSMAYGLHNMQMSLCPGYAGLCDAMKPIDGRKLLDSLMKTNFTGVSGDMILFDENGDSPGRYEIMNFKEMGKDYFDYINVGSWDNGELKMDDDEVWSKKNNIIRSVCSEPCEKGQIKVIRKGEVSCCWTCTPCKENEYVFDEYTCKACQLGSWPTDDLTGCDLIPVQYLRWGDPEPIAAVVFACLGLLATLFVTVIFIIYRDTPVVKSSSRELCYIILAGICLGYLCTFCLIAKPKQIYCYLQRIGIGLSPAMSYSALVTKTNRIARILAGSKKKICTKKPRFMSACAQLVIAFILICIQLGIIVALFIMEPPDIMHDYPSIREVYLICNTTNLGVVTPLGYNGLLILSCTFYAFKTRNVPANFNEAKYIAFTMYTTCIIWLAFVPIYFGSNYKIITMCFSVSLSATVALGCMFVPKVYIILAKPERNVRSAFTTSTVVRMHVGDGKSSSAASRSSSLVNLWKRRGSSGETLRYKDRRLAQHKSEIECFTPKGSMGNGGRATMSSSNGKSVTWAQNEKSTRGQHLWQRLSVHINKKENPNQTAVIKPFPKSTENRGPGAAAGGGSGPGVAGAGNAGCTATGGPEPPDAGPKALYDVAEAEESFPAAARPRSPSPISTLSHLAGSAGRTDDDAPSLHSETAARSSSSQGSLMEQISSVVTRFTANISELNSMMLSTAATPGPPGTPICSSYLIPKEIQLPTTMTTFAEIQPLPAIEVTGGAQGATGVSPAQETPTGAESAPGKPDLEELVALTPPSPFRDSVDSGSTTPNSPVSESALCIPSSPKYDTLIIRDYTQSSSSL
Sequence of Metabotropic glutamate receptor 5 (Rattus norvegicus) (P31424 21-1203 limits assumed): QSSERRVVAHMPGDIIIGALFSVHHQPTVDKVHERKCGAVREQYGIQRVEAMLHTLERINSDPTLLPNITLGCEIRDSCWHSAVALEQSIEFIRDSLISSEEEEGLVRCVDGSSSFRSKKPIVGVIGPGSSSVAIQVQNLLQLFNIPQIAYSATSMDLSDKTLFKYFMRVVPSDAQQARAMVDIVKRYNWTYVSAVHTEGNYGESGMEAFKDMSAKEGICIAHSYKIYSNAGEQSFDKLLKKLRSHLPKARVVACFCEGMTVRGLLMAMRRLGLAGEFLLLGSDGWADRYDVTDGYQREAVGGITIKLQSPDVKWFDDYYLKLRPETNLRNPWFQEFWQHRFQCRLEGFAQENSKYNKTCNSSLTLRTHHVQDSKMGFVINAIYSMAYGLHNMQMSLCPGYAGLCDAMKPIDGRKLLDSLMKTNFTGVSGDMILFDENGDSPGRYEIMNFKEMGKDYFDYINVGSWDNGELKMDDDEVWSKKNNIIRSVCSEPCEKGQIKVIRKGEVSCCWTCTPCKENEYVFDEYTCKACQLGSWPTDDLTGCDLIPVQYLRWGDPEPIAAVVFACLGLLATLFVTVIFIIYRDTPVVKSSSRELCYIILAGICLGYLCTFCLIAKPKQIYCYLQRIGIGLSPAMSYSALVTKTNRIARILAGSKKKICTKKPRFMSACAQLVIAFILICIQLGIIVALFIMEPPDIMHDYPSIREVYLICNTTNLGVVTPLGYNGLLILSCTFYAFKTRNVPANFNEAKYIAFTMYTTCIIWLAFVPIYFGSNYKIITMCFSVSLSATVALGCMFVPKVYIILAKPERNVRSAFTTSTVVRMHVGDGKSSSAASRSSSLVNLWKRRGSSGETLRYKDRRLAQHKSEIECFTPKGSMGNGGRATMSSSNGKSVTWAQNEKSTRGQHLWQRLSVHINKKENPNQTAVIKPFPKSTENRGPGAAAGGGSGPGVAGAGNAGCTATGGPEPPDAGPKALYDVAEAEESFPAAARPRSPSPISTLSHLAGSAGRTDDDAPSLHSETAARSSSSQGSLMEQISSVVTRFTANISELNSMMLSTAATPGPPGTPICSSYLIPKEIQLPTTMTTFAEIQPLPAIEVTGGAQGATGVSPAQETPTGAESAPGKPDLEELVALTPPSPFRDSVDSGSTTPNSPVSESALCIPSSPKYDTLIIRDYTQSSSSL
Sequence of Cytochrome P450 3A4 (P08684 whole entry): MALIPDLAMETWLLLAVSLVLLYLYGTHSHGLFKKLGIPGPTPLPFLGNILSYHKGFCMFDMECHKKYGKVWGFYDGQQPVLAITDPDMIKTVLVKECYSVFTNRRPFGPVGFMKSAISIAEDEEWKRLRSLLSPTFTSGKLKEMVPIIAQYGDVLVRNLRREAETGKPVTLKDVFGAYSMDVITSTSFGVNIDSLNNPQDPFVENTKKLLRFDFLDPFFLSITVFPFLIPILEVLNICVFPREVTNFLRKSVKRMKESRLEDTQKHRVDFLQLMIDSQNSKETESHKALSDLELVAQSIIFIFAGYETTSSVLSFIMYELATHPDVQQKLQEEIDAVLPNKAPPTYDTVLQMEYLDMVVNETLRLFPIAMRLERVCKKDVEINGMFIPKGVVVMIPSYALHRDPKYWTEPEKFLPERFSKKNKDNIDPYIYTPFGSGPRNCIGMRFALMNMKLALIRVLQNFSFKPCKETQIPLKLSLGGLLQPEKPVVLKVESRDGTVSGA
Sequence of Cytochrome P450 2D6 (P10635 whole entry): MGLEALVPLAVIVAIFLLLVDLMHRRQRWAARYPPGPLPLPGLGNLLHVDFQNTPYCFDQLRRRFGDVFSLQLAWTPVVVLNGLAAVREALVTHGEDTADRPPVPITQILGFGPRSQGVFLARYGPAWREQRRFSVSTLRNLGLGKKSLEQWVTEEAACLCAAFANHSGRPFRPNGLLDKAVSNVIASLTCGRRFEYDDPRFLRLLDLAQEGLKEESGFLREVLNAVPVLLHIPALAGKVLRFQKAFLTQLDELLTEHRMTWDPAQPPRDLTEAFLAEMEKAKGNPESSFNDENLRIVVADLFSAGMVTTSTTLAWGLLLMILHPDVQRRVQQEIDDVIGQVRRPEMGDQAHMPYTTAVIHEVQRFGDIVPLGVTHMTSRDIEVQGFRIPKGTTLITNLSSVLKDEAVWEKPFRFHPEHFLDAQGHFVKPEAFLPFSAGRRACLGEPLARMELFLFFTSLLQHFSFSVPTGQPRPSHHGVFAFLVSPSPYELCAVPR
Sequence of Cytochrome P450 2C9 (P11712 whole entry): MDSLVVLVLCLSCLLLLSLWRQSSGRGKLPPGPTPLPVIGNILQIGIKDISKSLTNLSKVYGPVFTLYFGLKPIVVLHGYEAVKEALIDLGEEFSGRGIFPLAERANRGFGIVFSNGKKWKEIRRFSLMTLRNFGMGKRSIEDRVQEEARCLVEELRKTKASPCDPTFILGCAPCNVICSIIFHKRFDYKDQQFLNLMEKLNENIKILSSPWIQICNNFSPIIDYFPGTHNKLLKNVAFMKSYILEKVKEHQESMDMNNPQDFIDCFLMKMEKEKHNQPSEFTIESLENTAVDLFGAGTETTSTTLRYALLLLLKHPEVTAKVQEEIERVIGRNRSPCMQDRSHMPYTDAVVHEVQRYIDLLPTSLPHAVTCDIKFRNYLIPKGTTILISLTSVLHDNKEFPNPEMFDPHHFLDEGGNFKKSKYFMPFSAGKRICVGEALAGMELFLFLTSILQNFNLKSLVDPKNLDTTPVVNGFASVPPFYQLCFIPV

IC50 ([1]; hek293): Not Active
SMILES: COc1cccnc1NC(=O)c1cc2n(n1)CCCC2

IC50 ([1]; read-out: IC50): 669 nM
SMILES: Clc1ccc(-c2cc3n(n2)CCCC3)nc1

IC50 [2]: 451 nM
SMILES: N#Cc1cccc(COc2cc3n(n2)CCCC3)c1

IC50 ([1]; read-out: IC50): 3000 nM
SMILES: Cc1ccc(-c2cc3n(n2)CCCC3)nc1

IC50 ([1]; read-out: IC50): 262 nM
SMILES: O=C(Nc1ccc(Cl)cn1)c1cc2n(n1)CCCC2

IC50 ([1]; read-out: IC50): > 10000 nM
SMILES: O=C(Nc1ncccc1O)c1cc2n(n1)CCCC2

IC50 ([1]; hek293): Not Active
SMILES: N#Cc1ccccc1COc1cc2n(n1)CCCC2

IC50 ([1]; read-out: IC50): 2620 nM
microsomal CLint [3]: < 5 µL/min/mg
microsomal CLint [4]: < 5 µL/min/mg
inhibition [5]: > 99%
SMILES: Cc1cc(C(=O)Nc2ccc(C#N)cn2)nn1C

IC50 ([1]; hek293): Not Active
SMILES: N#Cc1cccnc1NC(=O)c1cc2n(n1)CCCC2

IC50 ([1]; read-out: IC50): 316 nM
clearance [7]: 72 mL/min/kg
Cmax [8]: 416 ng/mL
Cp(T) (Plasma [9]): 501 ng/mL
Cp(T) (Plasma [10]): 46 ng/mL
half-life [11]: 12 min
Drug uptake (Plasma [12]): 14.4%
solubility kinetic [13]: 100 µg/mL (≈ 393 µM)
Cp(T) (Plasma [14]): 5.3 ng/mL
INH (Cytochrome P450 2D6): > 10 µM
INH [15]: 299 nM
microsomal CLint [3]: 85 µL/min/mg
fraction unbound [16]: 0.32
Vd [17]: 1.1 L/kg
microsomal CLint [4]: 42 µL/min/mg
INH (Cytochrome P450 2C9): > 10 µM
INH (Cytochrome P450 3A4): > 10 µM
INH (Cytochrome P450 1A2): > 10 µM
inhibition [5]: > 99%
solubility kinetic [19]: 160 µg/mL (≈ 629 µM)
Cp(T) (Plasma [21]): 2.4 ng/mL
Cmax [22]: 2900 ng/mL
SMILES: N#Cc1ccc(COc2cc3n(n2)CCCC3)nc1
Activity (Rattus norvegicus [6]): Dose-dependent effect
Activity (Rattus norvegicus [18]): Active
Activity (Rattus norvegicus [20]): inactive

IC50 ([1]; hek293): Not Active
SMILES: CC(=O)c1ccc(COc2cc3n(n2)CCCC3)nc1

IC50 ([1]; hek293): Not Active
SMILES: Cc1cccnc1-c1cc2n(n1)CCCC2

IC50 ([1]; read-out: IC50): 769 nM
SMILES: Cc1cccc(COc2cc3n(n2)CCCC3)c1

IC50 ([1]; hek293): Not Active
SMILES: COc1cccc(NC(=O)c2cc3n(n2)CCCC3)n1

IC50 ([1]; read-out: IC50): 5380 nM
SMILES: N#Cc1ccc(CC(=O)c2nn3c(c2C#N)CCCC3)nc1

SMILES: Cc1nc(C#Cc2cccnc2)cs1
Activity (Rattus norvegicus [23]): Active

IC50 ([1]; hek293): Not Active
SMILES: Nc1ccc(NC(=O)c2cc3n(n2)CCCC3)nc1

IC50 ([1]; read-out: IC50): 1610 nM
SMILES: N#Cc1ccc(COc2cc3n(n2)CCCC3)cc1

IC50 ([1]; read-out: IC50): 77 nM
solubility kinetic [13]: 20 µg/mL (≈ 85.9 µM)
INH [15]: 401 nM
microsomal CLint [3]: 386 µL/min/mg
microsomal CLint [4]: 384 µL/min/mg
INH (Cytochrome P450 1A2): < 0.75 µM
inhibition [5]: > 99%
solubility kinetic [19]: 110 µg/mL (≈ 473 µM)
SMILES: Clc1cccc(-c2cc3n(n2)CCCC3)c1

IC50 ([1]; read-out: IC50): 1550 nM
SMILES: Clc1ccc(COc2cc3n(n2)CCCC3)nc1

IC50 ([1]; read-out: IC50): > 10000 nM
SMILES: N#Cc1ccc(-c2cc3n(n2)CCCC3)nc1

IC50 ([1]; read-out: IC50): 3080 nM
SMILES: Cc1ccnc(-c2cc3n(n2)CCCC3)c1

IC50 ([1]; read-out: IC50): 1810 nM
SMILES: N#Cc1ccc(NC(=O)c2cc3ccccn3n2)nc1

IC50 ([1]; read-out: IC50): 390 nM
SMILES: O=C(Cc1ccccn1)c1cc2n(n1)CCCC2

IC50 ([1]; read-out: IC50): 5900 nM
SMILES: Clc1cccc(COc2cc3n(n2)CCCC3)n1

IC50 ([1]; read-out: IC50): 2500 nM
SMILES: c1ccc(COc2cc3n(n2)CCCC3)nc1

IC50 ([1]; read-out: IC50): 1520 nM
SMILES: Clc1cccc(-c2cc3n(n2)CCCC3)n1
